Measurements reported in patent publication US9096492B2, “Hydrated N-fullerene amino acids, method for producing the latter, and pharmaceutical compositions on the basis thereof” (priority 2011, dated 2015).
Where two headings read alike, the source gives them in different places.

Assays:
[1] = Acute toxicity in rats after a single intramuscular injection; assay type: in vivo, Wistar rats
[2] = rat, in vivo
[3] = rat, in vivo; remark: listed apart in the source
[4] = test system: A/Aichi/2/69 (H3N2) influenza virus; experiment: Induced influenza pneumonia in mice; conditions: for Average lifetime (days) / Death rate (%) / Percent death protection (%) / Survival (survivors/total): observation day 16
[5] = test system: Ehrlich ascites carcinoma; experiment: Ehrlich ascites carcinoma in white mice, body weight dynamics
[6] = test system: type 1 human immunodeficiency virus; experiment: Antiviral activity on HIV-1 infected human cell model (cell staining, CPE, syncytium formation); conditions: for CPE/syncytia (+): number of pluses of the four-plus system; for Cell survival rate, % / Number of cells × 10^3/mL: HIV-1 infected cells
[7] = intraperitoneally 100 mg/kg/day

Substance: N-fullerene tris(δ-aminocaproic acid) hydrate [Agent 1]
- death during the 14-day observation period ([1]; 5, 50 and 500 mg/kg single i.m.): No death occurred
- Animal body weight (M ± SD) ([1]; females, 5 mg/kg single intramuscular, day 0): 163 ± 15.5 g
- Animal body weight (M ± SD) ([1]; females, 50 mg/kg single intramuscular, day 0): 165 ± 17.5 g
- Animal body weight (M ± SD) ([1]; females, 500 mg/kg single intramuscular, day 0): 160 ± 8.1 g
- Animal body weight (M ± SD) ([1]; females, 500 mg/kg single intramuscular, day 7): 169 ± 8.0 g
- Animal body weight (M ± SD) ([1]; males, 5 mg/kg single intramuscular, day 7): 228 ± 18.1 g
- Animal body weight (M ± SD) ([1]; males, 5 mg/kg single intramuscular, day 14): 276 ± 17.8 g
- Animal body weight (M ± SD) ([1]; males, 50 mg/kg single intramuscular, day 7): 228 ± 17.0 g
- Animal body weight (M ± SD) ([1]; males, 50 mg/kg single intramuscular, day 14): 279 ± 18.3 g
- Animal body weight (M ± SD) ([1]; males, 500 mg/kg single intramuscular, day 14): 258 ± 24.1 g
- LD50 ([1]; single intramuscular administration, exceeds the maximal tested dose): > 500 mg/kg
- Alkali hosphatase, Units/L ([2]; 3 mg/kg): 143 ± 47 Units/L
- Cholesterol ([2]; 3 mg/kg): 4.17 ± 0.68 mmol/L
- Glucose ([2]; 3 mg/kg): 7.64 ± 1.56 mmol/L
- Total proten ([2]; 3 mg/kg): 71.12 ± 6.66 g/L
- Alkali hosphatase, Units/L ([2]; 9 mg/kg): 159 ± 28 Units/L
- Glucose ([2]; 9 mg/kg): 7.18 ± 0.80 mmol/L
- Total protein ([2]; 9 mg/kg): 68.94 ± 2.97 g/L
- Total proten ([2]; 9 mg/kg): 78.48 ± 8.94 g/L
- Alkali hosphatase, Units/L ([2]; 20 mg/kg): 248 ± 107 Units/L
- Total proten ([2]; 20 mg/kg): 72.76 ± 8.11 g/L
- Urea ([2]; 20 mg/kg): 9.22 ± 1.56 mmol/L
- Weight coefficients of viscera, Spleen [3]: 5.2 ± 0.7 g/kg body weight
- Weight coefficients of viscera, heart [3]: 4.1 ± 0.4 g/kg body weight
- Weight coefficients of viscera, kidneys [3]: 6.5 ± 0.4 g/kg body weight
- Weight coefficients of viscera, liver [3]: 32.2 ± 1.8 g/kg body weight
- Weight coefficients of viscera, lungs [3]: 7.1 ± 0.5 g/kg body weight
- Weight coefficients of viscera, thymus [3]: 1.2 ± 0.4 g/kg body weight
- weight coefficients of organs versus control [3]: no significant difference was found between experimental and control animals
- weight coefficients of viscera versus control [3]: no distinctions between the rats of the experimental groups and the control group
- Weight coefficients of viscera, Spleen ([3]; 3 mg/kg): 4.7 ± 0.5 g/kg body weight
- Weight coefficients of viscera, heart ([3]; 3 mg/kg): 3.5 ± 0.7 g/kg body weight
- Weight coefficients of viscera, kidneys ([3]; 3 mg/kg): 7.2 ± 0.5 g/kg body weight
- Weight coefficients of viscera, heart ([3]; 9 mg/kg): 3.8 ± 0.6 g/kg body weight
- Percent body weight change ([4]; intramuscularly 50 mg/kg/day, day 1 post infection): +9%
- Percent body weight change ([4]; intramuscularly 50 mg/kg/day, day 2 post infection): +14%
- Percent body weight change ([4]; intramuscularly 50 mg/kg/day, day 3 post infection): +21%
- Percent body weight change ([4]; intramuscularly 50 mg/kg/day, day 4 post infection): +26%
- Percent body weight change ([4]; intramuscularly 50 mg/kg/day, day 5 post infection): +30%
- Percent body weight change ([4]; intramuscularly 50 mg/kg/day, day 7 post infection): +27%
- Percent body weight change ([4]; intramuscularly 50 mg/kg/day, day 9 post infection): +38%
- Percent body weight change ([4]; intramuscularly 50 mg/kg/day, day 11 post infection): +64%
- Percent body weight change ([4]; intramuscularly 50 mg/kg/day, day 13 post infection): +74%
- Average lifetime (days) ([4]; intramuscularly 50 mg/kg/day): 12.4 (1-7 d., 1-9 d., 2-11 d) days
- Death rate (%) ([4]; intramuscularly 50 mg/kg/day): 40%
- Percent death protection (%) ([4]; intramuscularly 50 mg/kg/day): 50%
- Survival (survivors/total) ([4]; intramuscularly 50 mg/kg/day): 6/10
- Percent body weight change ([4]; intramuscularly 100 mg/kg/day, day 1 post infection): +13%
- Percent body weight change ([4]; intramuscularly 100 mg/kg/day, day 2 post infection): +17%
- Percent body weight change ([4]; intramuscularly 100 mg/kg/day, day 3 post infection): +23%
- Percent body weight change ([4]; intramuscularly 100 mg/kg/day, day 4 post infection): +28%
- Percent body weight change ([4]; intramuscularly 100 mg/kg/day, day 5 post infection): +31%
- Percent body weight change ([4]; intramuscularly 100 mg/kg/day, day 7 post infection): +39%
- Percent body weight change ([4]; intramuscularly 100 mg/kg/day, day 9 post infection): +65%
- Percent body weight change ([4]; intramuscularly 100 mg/kg/day, day 11 post infection): +7%
- Percent body weight change ([4]; intramuscularly 100 mg/kg/day, day 13 post infection): +82%
- Average lifetime (days) ([4]; intramuscularly 100 mg/kg/day): 13.5 (1-8 d, 1-9 d) days
- Death rate (%) ([4]; intramuscularly 100 mg/kg/day): 20%
- Percent death protection (%) ([4]; intramuscularly 100 mg/kg/day): 70%
- Survival (survivors/total) ([4]; intramuscularly 100 mg/kg/day): 8/10
- Percent body weight change ([4]; intramuscularly 200 mg/kg/day, day 1 post infection): +11%
- Percent body weight change ([4]; intramuscularly 200 mg/kg/day, day 2 post infection): +20%
- Percent body weight change ([4]; intramuscularly 200 mg/kg/day, day 3 post infection): +26%
- Percent body weight change ([4]; intramuscularly 200 mg/kg/day, day 4 post infection): +35%
- Percent body weight change ([4]; intramuscularly 200 mg/kg/day, day 5 post infection): +39%
- Percent body weight change ([4]; intramuscularly 200 mg/kg/day, day 7 post infection): +43%
- Percent body weight change ([4]; intramuscularly 200 mg/kg/day, day 9 post infection): +51%
- Percent body weight change ([4]; intramuscularly 200 mg/kg/day, day 11 post infection): +62%
- Percent body weight change ([4]; intramuscularly 200 mg/kg/day, day 13 post infection): +70%
- Average lifetime (days) ([4]; intramuscularly 200 mg/kg/day): 14.4 (1-10 d) days
- Death rate (%) ([4]; intramuscularly 200 mg/kg/day): 10%
- Percent death protection (%) ([4]; intramuscularly 200 mg/kg/day): 80%
- Survival (survivors/total) ([4]; intramuscularly 200 mg/kg/day): 9/10
- tolerability in infected mice ([4]; intraperitoneal, 200 mg/kg/day): toxic
- Percent body weight change ([4]; intraperitoneally 50 mg/kg/day, day 1 post infection): +11%
- Percent body weight change ([4]; intraperitoneally 50 mg/kg/day, day 2 post infection): +17%
- Percent body weight change ([4]; intraperitoneally 50 mg/kg/day, day 3 post infection): +22%
- Percent body weight change ([4]; intraperitoneally 50 mg/kg/day, day 4 post infection): +25%
- Percent body weight change ([4]; intraperitoneally 50 mg/kg/day, day 5 post infection): +28%
- Percent body weight change ([4]; intraperitoneally 50 mg/kg/day, day 7 post infection): +35%
- Percent body weight change ([4]; intraperitoneally 50 mg/kg/day, day 9 post infection): +41%
- Percent body weight change ([4]; intraperitoneally 50 mg/kg/day, day 11 post infection): +67%
- Percent body weight change ([4]; intraperitoneally 50 mg/kg/day, day 13 post infection): +77%
- Average lifetime (days) ([4]; intraperitoneally 50 mg/kg/day): 11.5 (1-5 d., 1-7 d., 3-11 d.) days
- Death rate (%) ([4]; intraperitoneally 50 mg/kg/day): 50%
- Percent death protection (%) ([4]; intraperitoneally 50 mg/kg/day): 40%
- Survival (survivors/total) ([4]; intraperitoneally 50 mg/kg/day): 5/10
- Percent body weight change ([4]; intraperitoneally 100 mg/kg/day, day 1 post infection): +9%
- Percent body weight change ([4]; intraperitoneally 100 mg/kg/day, day 2 post infection): +15%
- Percent body weight change ([4]; intraperitoneally 100 mg/kg/day, day 3 post infection): +19%
- Percent body weight change ([4]; intraperitoneally 100 mg/kg/day, day 4 post infection): +21%
- Percent body weight change ([4]; intraperitoneally 100 mg/kg/day, day 5 post infection): +21%
- Percent body weight change ([4]; intraperitoneally 100 mg/kg/day, day 7 post infection): +27%
- Percent body weight change ([4]; intraperitoneally 100 mg/kg/day, day 9 post infection): +37%
- Percent body weight change ([4]; intraperitoneally 100 mg/kg/day, day 11 post infection): +50%
- Percent body weight change ([4]; intraperitoneally 100 mg/kg/day, day 13 post infection): +82%
- Average lifetime (days) [4, 7]: 11.0 (3-7 d., 1-8 d., 1-11 d) days
- Death rate (%) [4, 7]: 50%
- Percent death protection (%) [4, 7]: 40%
- Survival (survivors/total) [4, 7]: 5/10
- Percent body weight change ([4]; orally 100 mg/kg/day, day 1 post infection): +12%
- Percent body weight change ([4]; orally 100 mg/kg/day, day 2 post infection): +17%
- Percent body weight change ([4]; orally 100 mg/kg/day, day 3 post infection): +23%
- Percent body weight change ([4]; orally 100 mg/kg/day, day 4 post infection): +25%
- Percent body weight change ([4]; orally 100 mg/kg/day, day 5 post infection): +24%
- Percent body weight change ([4]; orally 100 mg/kg/day, day 7 post infection): +21%
- Percent body weight change ([4]; orally 100 mg/kg/day, day 9 post infection): +23%
- Percent body weight change ([4]; orally 100 mg/kg/day, day 11 post infection): +34%
- Percent body weight change ([4]; orally 100 mg/kg/day, day 13 post infection): +44%
- Average lifetime (days) ([4]; orally 100 mg/kg/day): 10.4 (2-7 d., 1-9 d., 1-10 d) days
- Death rate (%) ([4]; orally 100 mg/kg/day): 50%
- Percent death protection (%) ([4]; orally 100 mg/kg/day): 40%
- Survival (survivors/total) ([4]; orally 100 mg/kg/day): 5/10
- Percent body weight change ([4]; orally 200 mg/kg/day, day 1 post infection): +15%
- Percent body weight change ([4]; orally 200 mg/kg/day, day 2 post infection): +20%
- Percent body weight change ([4]; orally 200 mg/kg/day, day 3 post infection): +23%
- Percent body weight change ([4]; orally 200 mg/kg/day, day 4 post infection): +25%
- Percent body weight change ([4]; orally 200 mg/kg/day, day 5 post infection): +24%
- Percent body weight change ([4]; orally 200 mg/kg/day, day 7 post infection): +22%
- Percent body weight change ([4]; orally 200 mg/kg/day, day 9 post infection): +25%
- Percent body weight change ([4]; orally 200 mg/kg/day, day 11 post infection): +45%
- Percent body weight change ([4]; orally 200 mg/kg/day, day 13 post infection): +57%
- Average lifetime (days) ([4]; orally 200 mg/kg/day): 13.0 (1-7 d., 1-10 d., 1-11 d) days
- Death rate (%) ([4]; orally 200 mg/kg/day): 30%
- Percent death protection (%) ([4]; orally 200 mg/kg/day): 60%
- Survival (survivors/total) ([4]; orally 200 mg/kg/day): 7/10
- Animal body weight ([5]; day 1 post tumor transplantation): 18.6 ± 2.3 g
- Animal body weight ([5]; day 3 post tumor transplantation): 18.8 ± 2.2 g
- Animal body weight ([5]; day 5 post tumor transplantation): 18.8 ± 1.9 g
- Animal body weight ([5]; day 8 post tumor transplantation): 19.4 ± 1.7 g
- Animal body weight ([5]; day 10 post tumor transplantation): 19.9 ± 1.7 g
- Animal body weight ([5]; day 13 post tumor transplantation): 20.4 ± 1.5 g
- Animal body weight ([5]; day 15 post tumor transplantation): 20.4 ± 1.4 g
- CPE/syncytia (+) ([6]; 0.5 mcg/mL): 4.0 +
- CPE/syncytia (+) ([6]; 1.0 mcg/mL): 2.0 +
- CPE/syncytia (+) ([6]; 5.0 mcg/mL): 0 +
- CPE/syncytia (+) ([6]; 10 mcg/mL): 0 +
- Cell survival rate, % ([6]; 0.5 mcg/mL): 27%
- Number of cells × 10^3/mL ([6]; 0.5 mcg/mL): 133.2 10^3/mL
- Cell survival rate, % ([6]; 1.0 mcg/mL): 75%
- Number of cells × 10^3/mL ([6]; 1.0 mcg/mL): 320.4 10^3/mL
- Cell survival rate, % ([6]; 5.0 mcg/mL): 92%
- Number of cells × 10^3/mL ([6]; 5.0 mcg/mL): 480.0 10^3/mL
- Cell survival rate, % ([6]; 10 mcg/mL): 95%
- Number of cells × 10^3/mL ([6]; 10 mcg/mL): 579.3 10^3/mL
- EC50 (50% effective concentration) ([6]; HIV-1 infected human cells): 5.0 µg/mL
